According to patent US7022716B2, “Cyclic amine phenyl beta-3 adrenergic receptor agonists” (Wyeth, priority 2000, dated 2006):

Experiments:
[1] = molecular target: T1, human β3 adrenergic receptor (Homo sapiens, UniProt P13945); assay: cAMP (SPA) response in CHO cells transfected with human β3 adrenergic receptor; format: cell-based; design: key: fraction of maximal isoproterenol (10^-5 M) response; conditions: maximal response relative to maximal response of isoproterenol at 10^-5 M
T1 construct: Full length β3 AR clones (402 amino acids) containing the last 6 amino acids of hβ3-AR are prepared; expressed in transfected cells; host or cells: CHO (Chinese hamster ovary) cells
In short: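 Reactions were stopped with 0.2N HCl and neutralised, and cAMP was measured by SPA. Activity is expressed as percent of the maximal 10^−5 M isoproterenol response.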

T1 sequence (P13945 whole entry): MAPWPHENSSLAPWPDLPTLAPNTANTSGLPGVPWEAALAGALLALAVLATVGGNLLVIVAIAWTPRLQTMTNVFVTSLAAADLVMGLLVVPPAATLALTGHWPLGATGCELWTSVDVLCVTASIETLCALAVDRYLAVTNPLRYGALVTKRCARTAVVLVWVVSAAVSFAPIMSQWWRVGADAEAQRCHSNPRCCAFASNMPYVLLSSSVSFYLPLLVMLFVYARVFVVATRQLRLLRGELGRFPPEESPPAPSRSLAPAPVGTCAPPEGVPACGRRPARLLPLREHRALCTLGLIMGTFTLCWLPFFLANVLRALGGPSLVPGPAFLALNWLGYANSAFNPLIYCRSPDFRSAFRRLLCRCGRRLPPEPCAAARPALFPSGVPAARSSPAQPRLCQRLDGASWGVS

Row | Compound | IA(β3) [1] | melting point
1 | CS(=O)(=O)Nc1cc([C@@H](O)CNC2CCN(c3ccc(-c4nnn(CC(=O)O)n4)cc3)CC2)ccc1O [Example 100, [5-(4-{4-[((2R)-2-Hydroxy-2-{4-hydroxy-3-[(methylsulfonyl)amino]phenyl}ethyl)amino]-1-piperidinyl}phenyl)-2H-tetraazol-2-yl]acetic acid] | 0.9 | > 240 °C (dec.)
2 | O=C1NC(=O)C(Cc2ccc(N3CCC(NC[C@H](O)COc4cccnc4)CC3)cc2)S1 (stereo partly drawn) [Example 125, 5-(4-{4-[(2S)-2-Hydroxy-3-(pyridin-3-yloxy)-propylamino]-piperidin-1-yl}-benzyl)-thiazolidine-2,4-dione] | 0.36 | 130 to 132 °C
3 | O=C1NC(=O)C(Cc2ccc(N3CCC(NC[C@@H](O)c4cccnc4)CC3)cc2)S1 (stereo partly drawn) [Example 131, 5-{4-[4-((2S)-2-Hydroxy-2-pyridin-3-yl-ethylamino)-piperidin-1-yl]-benzyl}-thiazolidine-2,4-dione] | 0.52 | > 88 °C (dec.)
4 | O=C1NC(=O)C(Cc2ccc(N3CCC(NC[C@H](O)c4cccnc4)CC3)cc2)S1 (stereo partly drawn) [Example 136, 5-{4-[4-((2R)-2-Hydroxy-2-pyridin-3-yl-ethylamino)-piperidin-1-yl]-benzyl}-thiazolidine-2,4-dione] | 0.9 | 87 °C (dec.)
5 | CS(=O)(=O)Nc1cc([C@@H](O)CNC2CCN(c3ccc(-c4cc(=O)[nH][nH]4)cc3)CC2)ccc1O [Example 146, N-[(2R)-2-Hydroxy-5-(1-hydroxy-2-{1-[4-(5-oxo-2,5-dihydro-1H-pyrazol-3-yl)-phenyl]-piperidin-4-ylamino}-ethyl)-phenyl]-methanesulfonamide] | 0.91 | 225 to 227 °C
6 | CCOC(=O)c1ccc(N2CCC(NC[C@H](O)COc3cccc4[nH]c(=O)[nH]c34)CC2)cc1 [Example 179] | 0.85 | > 170 °C (dec.)
7 | CS(=O)(=O)Nc1cc([C@@H](O)CNC2CCN(c3ccc(CC(=O)O)cc3)CC2)ccc1O [Example 182, (4-{4-[(2R)-2-Hydroxy-2-(4-hydroxy-3-methanesulfonylamino-phenyl)-ethylamino]-piperidin-1-yl}-phenyl)-acetic acid] | 0.86 | > 140 °C (dec.)
8 | CCOC(=O)/C=C/c1ccc(N2CCC(NC[C@H](O)c3ccc(O)c(NS(C)(=O)=O)c3)CC2)cc1 [Example 183, (E)-3-(4-{4-[(2R)-2-Hydroxy-2-(4-hydroxy-3-methanesulfonylamino-phenyl)-ethylamino]-piperidin-1-yl}-phenyl)-acrylic acid ethyl ester] | 0.84 | 103 to 106 °C
9 | CS(=O)(=O)Nc1cc([C@@H](O)CNC2CCN(c3ccc(CCC(=O)O)cc3)CC2)ccc1O [Example 184, 3-(4-{4-[(R)-2-Hydroxy-2-(4-hydroxy-3-methanesulfonylamino-phenyl)-ethylamino]-piperidin-1-yl}-phenyl)-propionic acid] | 1.1 | 130 to 133 °C
10 | CS(=O)(=O)Nc1cc([C@@H](O)CNC2CCN(c3ccc(COCC(=O)O)cc3)CC2)ccc1O [Example 185, (4-{4-[(2R)-2-Hydroxy-2-(4-hydroxy-3-methanesulfonylamino-phenyl)-ethylamino]-piperidin-1-yl}-benzyloxy)-acetic acid] | 0.69 | > 145 °C (dec.)
11 | CCOC(=O)CCc1ccc(N2CCC(NC[C@H](O)c3ccc(O)c(NS(C)(=O)=O)c3)CC2)cc1 [Example 187, 3-(4-{4-[(2R)-2-Hydroxy-2-(4-hydroxy-3-methanesulfonylamino-phenyl)-ethylamino]-piperidin-1-yl}-phenyl)-propionic acid ethyl ester] | 1.03 | 76 to 78 °C
12 | CCOC(=O)C(=Cc1ccc(N2CCC(NCC(O)c3ccc(O)c(NS(C)(=O)=O)c3)CC2)cc1)C(=O)OCC (stereo not shown) [Example 188, 2-(4-{4-[2-Hydroxy-2-(4-hydroxy-3-methanesulfonylamino-phenyl)-ethylamino]-piperidin-1-yl}-benzylidene)-malonic acid diethyl ester] | 0.91 | > 80 °C (dec.)
13 | CS(=O)(=O)Nc1cc([C@@H](O)CNC2CCN(c3ccc(C(N)=O)cc3)CC2)ccc1O [Example 190, 4-{4-[(2R)-2-Hydroxy-2-(4-hydroxy-3-methanesulfonylamino-phenyl)-ethylamino]-piperidin-1-yl}-benzamide] | 1.12 | > 75 °C (dec.)
14 | CS(=O)(=O)Nc1cc([C@@H](O)CNC2CCN(c3ccc(C(=O)NOCc4ccccc4)cc3)CC2)ccc1O [Example 191, N-Benzyloxy-4-{4-[(2R)-2-hydroxy-2-(4-hydroxy-3-methanesulfonylamino-phenyl)-ethylamino]-piperidin-1-yl}-benzamide] | 1 | > 70 °C (dec.)
15 | CCOC(=O)CC[C@H](NC(=O)c1ccc(N2CCC(NC[C@H](O)c3ccc(O)c(NS(C)(=O)=O)c3)CC2)cc1)C(=O)OCC [Example 192, Diethyl(2S)-2-[(4-{4-[((2R)-2-hydroxy-2-{4-hydroxy-3-[(methylsulfonyl)amino]phenyl}ethyl)amino]-1-piperidinyl}benzoyl)amino]pentanedioate] | 0.97 | > 75 °C (dec.)
16 | CCOC(=O)CCNC(=O)c1ccc(N2CCC(NC[C@H](O)c3ccc(O)c(NS(C)(=O)=O)c3)CC2)cc1 [Example 193, Ethyl3-[(4-{4-[((2R)-2-hydroxy-2-{4-hydroxy-3-[(methylsulfonyl)amino]phenyl}-ethyl)amino]-1-piperidinyl}benzoyl)amino]propanoate.] | 0.9 | > 95 °C (dec.)
17 | CS(=O)(=O)Nc1cc([C@@H](O)CNC2CCN(c3ccc(C(=O)N[C@@H](CCC(=O)O)C(=O)O)cc3)CC2)ccc1O [Example 194, (2S)-2-[(4-{4-[((2R)-2-Hydroxy-2-{4-hydroxy-3-[(methylsulfonyl)amino]phenyl}-ethyl)amino]-1-piperidinyl}benzoyl)amino]pentanedioic acid] | 0.88 | > 230 °C (dec.)
18 | CS(=O)(=O)Nc1cc([C@@H](O)CNC2CCN(c3ccc(C(=O)NCCC(=O)O)cc3)CC2)ccc1O [Example 195, N-(4-{4-[((2R)-2-Hydroxy-2-{4-hydroxy-3-[(methylsulfonyl)amino]phenyl}ethyl)amino]-1-piperidinyl}benzoyl)-bete-alanine] | 0.98 | > 170 °C (dec.)
19 | CCOC(=O)CNC(=O)c1ccc(N2CCC(NC[C@H](O)c3ccc(O)c(NS(C)(=O)=O)c3)CC2)cc1 [Example 196, Ethyl[(4-{4-[((2R)-2-hydroxy-2-{4-hydroxy-3-[(methylsulfonyl)amino]phenyl}ethyl)amino]-1-piperidinyl}benzoyl)amino]acetate] | 1.1 | > 140 °C (dec.)
20 | CCOC(=O)[C@H](CC(C)C)NC(=O)c1ccc(N2CCC(NC[C@H](O)c3ccc(O)c(NS(C)(=O)=O)c3)CC2)cc1 [Example 198, (2S)-2-(4-{4-[(2R)-2-Hydroxy-2-(4-hydroxy-3-methanesulfonylamino-phenyl)-ethylamino]-piperidin-1-yl}-benzoylamino)-4-methyl-pentanoic acid ethyl ester:] | 0.97 | > 85 °C (dec.)
21 | COC(=O)[C@@H]1CCCN1C(=O)c1ccc(N2CCC(NC[C@H](O)c3ccc(O)c(NS(C)(=O)=O)c3)CC2)cc1 [Example 200, 1-(4-{4-[(2R)-2-Hydroxy-2-(4-hydroxy-3-methanesulfonylamino-phenyl)-ethylamino]-piperidin-1-yl}-benzoyl)-pyrrolidine-(2S)-2-carboxylic acid methyl ester] | 1.1 | > 80 °C (dec.)
22 | CCOC(=O)[C@@H](NC(=O)c1ccc(N2CCC(NC[C@H](O)c3ccc(O)c(NS(C)(=O)=O)c3)CC2)cc1)C(C)C [Example 202, (2S)-2-(4-{4-[(2R)-2-Hydroxy-2-(4-hydroxy-3-methanesulfonylamino-phenyl)-ethylamino]-piperidin-1-yl}-benzoylamino)-3-methyl-butyric acid ethyl ester] | 1.2 | > 85 °C (dec.)
23 | COC(=O)[C@H](Cc1ccccc1)NC(=O)c1ccc(N2CCC(NC[C@H](O)c3ccc(O)c(NS(C)(=O)=O)c3)CC2)cc1 [Example 204, (2S)-2-(4-{4-[(2R)-2-Hydroxy-2-(4-hydroxy-3-methanesulfonylamino-phenyl)-ethylamino]-piperidin-1-yl}-benzoylamino)-3-phenyl-propionic acid methyl ester] | 1.2 | > 98 °C (dec.)
24 | COC(=O)C1(NC(=O)c2ccc(N3CCC(NC[C@H](O)c4ccc(O)c(NS(C)(=O)=O)c4)CC3)cc2)CC1 [Example 206] | 0.94 | > 110 °C (dec.)
25 | CCCCN(CC(=O)OCC)C(=O)c1ccc(N2CCC(NC[C@H](O)c3ccc(O)c(NS(C)(=O)=O)c3)CC2)cc1 [Example 207, [Butyl-(4-{4-[(2R)-2-hydroxy-2-(4-hydroxy-3-methanesulfonylamino-phenyl)-ethylamino]-piperidin-1-yl}-benzoyl)-amino]-acetic acid ethyl ester] | 1 | > 60 °C (dec.)
26 | COC(=O)CNC(=O)c1ccc(N2CCC(NC[C@H](O)c3ccc(O)c(NS(C)(=O)=O)c3)CC2)cc1 [Example 208, Methyl[(4-{4-[((2R)-2-hydroxy-2-{4-hydroxy-3-[(methylsulfonyl)amino]phenyl}ethyl)amino]-1-piperidinyl}benzoyl)amino]acetate] | 0.97 | > 75 °C (dec.)
